# Experimental data from US20240300959A1, “BALASUBRAMIDE DERIVATIVE AND USE THEREOF IN PREPARATION OF MEDICINE FOR TREATING ACUTE LUNG INJURY” (Guangdong Pharmaceutical University, priority 2023, published 2024).
# How the values were obtained:
# [1] = tested on: bone marrow derived macrophages (BMDMs); test: CCK-8 cell viability of bone marrow derived macrophages; assay type: cell-based, C57BL/6J mice; conditions: BMDM cell viability
# Protocol: (1) Collection of bone marrow derived macrophages (BMDMs): C57BL/6J mice were sacrificed by dislocation of cervical vertebra, completely soaked and sterilized with 75% ethanol and placed faceup on a mouse board to fix the four limbs, the skin of the hind limbs was cut, the limbs were cut at ankle joints and femoral joints, and muscles and knee joints were removed. Precooled serum-free DMEM was sucked with a 1 mL syringe to rinse the bone marrow until a leg bone turned white, a rinsing solution was filtered with a 200-mesh filter membrane and then collected into a 15 mL centrifuge tube, centrifugation was performed at 500×g for 5 min, a supernatant was discarded, and a cell precipitate was resuspended with 1 mL of a red blood cell lysis buffer. After stomatocytosis was performed for 1 min, 5 mL of DMEM was added to stop the stomatocytosis, centrifugation was performed at 500×g for 5 min, a supernatant was discarded, and cells at a lower layer were resuspended overnight with DMEM containing 10% of FBS. Monocytes were collected by centrifugation and then resuspended with a DMEM culture medium containing 20% of FBS, and M-CSF was added at a final concentration of 25 ng/mL. The cells were inoculated into a 96-well plate at a density of 6×10^5, cultured in a cell incubator with a CO2 concentration of 5% at 37° C. for 48 h, and then cultured by adding M-CSF with a final concentration of 25 ng/mL into each well for 48 h until the monocytes were subjected to adherent culture and differentiation to obtain macrophages.
# The expression level of an inflammatory factor TNF-α in a cell supernatant was detected according to an operation instruction of a commercial ELISA kit, and the cell viability at different administration concentrations of (+)3C-20 was determined according to an operation instruction of a CCK-8 kit.
# [2] = tested on: mice with acute lung injury caused by intratracheal instillation of lipopolysaccharide; test: Acute lung injury caused by lung exposure to bacterial endotoxin (intratracheal instillation of LPS); assay type: in vivo, ICR mice; conditions: for Content of TNF-α in a lung tissue homogenate (% of Model) / Area percentage of alveolar cells (%) / Lung index (%): 6 h after intratracheal LPS; for Area percentage of alveolar cells (%): H&E lung sections; for Change multiple of COX-2 / Change multiple of IL-1β / Change multiple of IL-6 / Change multiple of TNF-α / Change multiple of iNOS: lung tissue RT-PCR; for Body weight (Day 1) / Body weight (Day 2) / Body weight (Day 3): intratracheal LPS model, in g (unit assumed)
# Protocol: Grouping, administration and modeling of animals: Male ICR mice were used as experimental animals, which were randomly divided into a control group, a model group, a positive administration group and administration groups according to the body weight. The control group and the model group were administered with a solvent by intraperitoneal injection (the solvent was prepared from DMSO, Kolliphor HS15 and Saline at a ratio of 1:2:7), the positive administration group was administered with 5 mg/kg dexamethasone by intraperitoneal injection, and the administration groups were administered with (+)3C-20 at a concentration of 10 mg/kg and 50 mg/kg, respectively, by intraperitoneal injection. The dexamethasone and the (+)3C-20 were dissolved in the above solvent and were clear and transparent. The administration was continued for 3 days. 2 h after the last administration, the mice were anesthetized with 2.5% isoflurane, necks were disinfected, cortices of the necks were cut, and tracheae were separated. All other groups were administered with 50 μL of 10 mg/mL LPS (LPS dissolved in Saline) at a dose of 20 mg/kg by instillation while the control group was administered with 50 μL of Saline by intratracheal instillation (it.), and the cortices were sutured. 6 h after the instillation of LPS, the mice were sacrificed, and serum and lung tissues were taken for later use. Body weight and lung index: The mice were weighed and randomly divided on day 1 and continuously weighed for 3 days before administration. 2 h after the last administration, the mice were administered with 50 μL of […] LPS by intratracheal instillation. 6 h later, the mice were dissected, and the lungs were taken and weighed.
# On day 3, 6 h after the intratracheal instillation of LPS, a part of the mice were subjected to perfusion with PBS and treated with paraformaldehyde to fix the right lobe of the lungs, another part of the mice were dissected to obtain lungs, and the lungs were frozen with liquid nitrogen for later use. The fixed right lungs were stained with hematoxylin-eosin (H&E) after dehydration, paraffin embedding and sectioning. 40 mg of the frozen lungs were cut, 300 μL of an RIPA lysis buffer was added thereto and homogenized by starting for 45 s and stopping for 15 s at a frequency of 60 Hz in 4 cycles for full lysis, and then centrifuged at 12,000 rpm at 4° C. A supernatant was taken, the protein concentration was calibrated and adjusted with a BCA protein assay kit, and then the level of an inflammatory factor TNF-α in lung tissue homogenates of various groups was detected by a commercial TNF-α ELISA kit. Results are shown in Table 10, FIG. 10-1 and FIG. 10-2.
# A small amount of frozen lung tissues were taken, a Trizol lysis reagent was added thereto and fully ground, RNA was extracted according to an operation instruction of an RNA extraction kit, and the expression of inflammation related genes in the lung tissues was detected by an RT-PCR technology. Experimental results are shown in Table 11, FIG. 11-1 and FIG. 11-2.
# [3] = 10 mg/kg i.p., intratracheal LPS
# [4] = 50 mg/kg i.p., intratracheal LPS
structure (smiles),measurement,setting,value
O=C(CCc1ccc(C(F)(F)F)cc1)O[C@@H]1C(=O)NCCc2c([nH]c3ccccc23)[C@H]1c1ccc(C(F)(F)F)cc1 [(+)-3C-20],Percentage of CCK-8 in a model group (%),[1]; 0.1 μM,100.35 ± 3.74%
same,Percentage of CCK-8 in a model group (%),[1]; 1 μM,96.71 ± 2.26%
same,Percentage of CCK-8 in a model group (%),[1]; 2.5 μM,97.49 ± 1.35%
same,Percentage of CCK-8 in a model group (%),[1]; 5 μM,89.87 ± 3.68%
same,Content of TNF-α in a lung tissue homogenate (% of Model),[2]; 10 mg/kg i.p.,90.587 ± 7.374 ^ % of Model
same,Area percentage of alveolar cells (%),[2]; 10 mg/kg i.p.,36.611 ± 1.64 %
same,Change multiple of COX-2,[2]; [3],2.05 ± 0.38
same,Change multiple of IL-1β,[2]; [3],13.04 ± 1.24
same,Change multiple of IL-6,[2]; [3],17.12 ± 2.28
same,Change multiple of TNF-α,[2]; [3],13.32 ± 0.94
same,Change multiple of iNOS,[2]; [3],4.56 ± 0.4
same,Lung index (%),[2]; 10 mg/kg intraperitoneal 3 days,0.656 ± 0.007%
same,Body weight (Day 1),[2]; 10 mg/kg intraperitoneal,27.67 ± 0.38
same,Body weight (Day 2),[2]; 10 mg/kg intraperitoneal,27.44 ± 0.43
same,Body weight (Day 3),[2]; 10 mg/kg intraperitoneal,27.93 ± 0.53
same,Content of TNF-α in a lung tissue homogenate (% of Model),[2]; 50 mg/kg i.p.,61.408 ± 6.525 % of Model
same,Area percentage of alveolar cells (%),[2]; 50 mg/kg i.p.,32.805 ± 0.814 %
same,Change multiple of COX-2,[2]; [4],1.14 ± 0.24
same,Change multiple of IL-1β,[2]; [4],11.94 ± 1.05
same,Change multiple of IL-6,[2]; [4],15.11 ± 1.58
same,Change multiple of TNF-α,[2]; [4],8.56 ± 1.21
same,Change multiple of iNOS,[2]; [4],3.75 ± 0.72
same,Lung index (%),[2]; 50 mg/kg intraperitoneal 3 days,0.591 ± 0.011 %
same,Body weight (Day 1),[2]; 50 mg/kg intraperitoneal,27.63 ± 0.48
same,Body weight (Day 2),[2]; 50 mg/kg intraperitoneal,27.04 ± 0.48
same,Body weight (Day 3),[2]; 50 mg/kg intraperitoneal,27 ± 0.61
same,"pathological lung injury compared with the model group, in words","[2]; 50 mg/kg, intratracheal LPS",obviously relieving pathological lung injury
